assay: Log P by HPLC on reversed phase columns (EEC directive 79/831 Annex V.A8); format: physicochemical; conditions: LogP method [a]; compounds of formula (I), Table 1.1
How it was run: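 Reversed-phase HPLC per EEC 79/831 Annex V.A8, LC-UV with 10→95% acetonitrile linear gradient; eluent [a] 0.1% formic acid (acidic), [b] 0.001 M ammonium acetate (neutral), [c] 0.1% phosphoric acid (acidic). Calibrated with C3–C16 straight-chain alkan-2-ones, linear interpolation of retention times; multiple values joined by "+".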

LogP	SMILES
3.80^[a]	CCOC(=O)C(CC(C)C)NC(=O)c1cc(F)c(Br)s1 (stereo not drawn) [1.0435]
4.23^[a]	CCOC(=O)C(CC(C)C)NC(=O)c1cc(Br)c(Cl)s1 (stereo not drawn) [1.0436]
3.87^[a]	CCOC(=O)C(NC(=O)c1cc(Br)c(Cl)s1)C(C)C (stereo not drawn) [1.0437]
3.07^[a]	COC(=O)C(CC(F)F)NC(=O)c1cc(Br)c(Cl)s1 (stereo not drawn) [1.0438]
3.44^[a]	CCOC(=O)C1(NC(=O)c2cc(Br)c(Cl)s2)CCC1 [1.0439]
3.23^[a]	COC(=O)C(CC(F)F)NC(=O)c1sc(Br)c(Br)c1F (stereo not drawn) [1.0440]
3.85^[a]	CCOC(=O)C(NC(=O)c1cc(Cl)c(Br)s1)C(C)C (stereo not drawn) [1.0441]
2.96^[a]	COC(=O)C(CC(F)F)NC(=O)c1cc(Cl)c(Br)s1 (stereo not drawn) [1.0442]
4.01^[a]	CCOC(=O)C(Cc1ccccc1)NC(=O)c1cc(Cl)c(Br)s1 (stereo not drawn) [1.0443]
4.19^[a]	CCOC(=O)C(CC(C)C)NC(=O)c1cc(Cl)c(Br)s1 (stereo not drawn) [1.0444]
3.86^[a]	CCOC(=O)C1(CNC(=O)c2sc(Br)c(Br)c2F)CC1 [1.0445]
4.21^[a]	CCOC(=O)C1(NC(=O)c2sc(Br)c(Br)c2F)CCCC1 [1.0446]
2.77^[a]	COC(=O)C1(NC(=O)c2sc(Br)c(Br)c2F)CCOCC1 [1.0447]
3.14^[a]	COC(=O)CC(C)NC(=O)c1sc(Br)c(Br)c1F (stereo not drawn) [1.0448]
2.97^[a]	CCOC(=O)CNC(=O)c1sc(Br)c(Br)c1F [1.0449]
3.11^[a]	CCOC(=O)CCNC(=O)c1sc(Br)c(Br)c1F [1.0450]
2.63^[a]	CCOC(=O)C(NC(=O)c1sc(Br)c(Br)c1F)C(C)C (stereo not drawn) [1.0451]
3.29^[a]	CCOC(=O)C1(NC(=O)c2cc(Cl)c(Br)s2)CCC1 [1.0452]
2.80^[a]	CCOC(=O)CCNC(=O)c1cc(Br)c(Cl)s1 [1.0453]
2.80^[a]	CCOC(=O)C1(NC(=O)c2cc(Cl)c(Br)s2)CC1 [1.0454]
1.99^[a]	O=C(NC1(C(=O)O)CC1)c1cc(Cl)c(Br)s1 [1.0455]
2.47^[a]	CCOC(=O)CCNC(=O)c1cc(F)c(Br)s1 [1.0456]
2.63^[a]	CCOC(=O)CNC(=O)c1cc(Br)c(Cl)s1 [1.0457]

LogP	SMILES
3.43^[a]	CCOC(=O)C1(NC(=O)c2cc(Br)c(Cl)s2)CC1 [1.0458]
2.98^[a]	CCOC(=O)C1(NC(=O)c2cc(F)c(Br)s2)CCC1 [1.0459]
2.51^[a]	CCOC(=O)C1(NC(=O)c2cc(F)c(Br)s2)CC1 [1.0460]
2.59^[a]	CCOC(=O)CNC(=O)c1cc(Cl)c(Br)s1 [1.0461]
2.77^[a]	CCOC(=O)CCNC(=O)c1cc(Cl)c(Br)s1 [1.0462]
2.80^[a]	CCOC(=O)C1(NC(=O)c2sc(C)c(Br)c2F)CC1 [1.0463]
2.33^[a]	CCOC(=O)CNC(=O)c1cc(C)c(Cl)s1 [1.0464]
2.49^[a]	CCOC(=O)CCNC(=O)c1cc(C)c(Cl)s1 [1.0465]
2.52^[a]	CCOC(=O)C1(NC(=O)c2cc(C)c(Cl)s2)CC1 [1.0466]
2.28^[a]	CCOC(=O)CNC(=O)c1cc(F)c(Br)s1 [1.0467]
2.98^[a]	CCOC(=O)C1(NC(=O)c2cc(I)c(I)s2)CC1 [1.0468]
2.08^[a]	O=C(NC1(C(=O)O)CC1)c1cc(I)c(I)s1 [1.0469]
1.88^[a]	NC(=O)C1(NC(=O)C2(NC(=O)c3cc(I)c(I)s3)CC2)CC1 [1.0470]
1.87^[a]	O=C(O)CNC(=O)c1cc(I)c(I)s1 [1.0471]
4.06^[a]	COC(=O)C(Cc1ccccc1)NC(=O)c1sc(Br)c(Br)c1F (stereo not drawn) [1.0472]
2.75^[a]	CSCCC(NC(=O)c1sc(Br)c(Br)c1F)C(=O)O (stereo not drawn) [1.0473]
1.63^[a]	O=C(O)CNC(=O)CNC(=O)c1cc(I)c(I)s1 [1.0474]
1.87^[a]	NC(=O)C1(NC(=O)c2cc(I)c(I)s2)CC1 [1.0475]
2.59^[a]	CCOC(=O)C1(NC(=O)C2(NC(=O)c3cc(I)c(I)s3)CC2)CC1 [1.0476]
3.04^[a]	CSC(=O)C1(NC(=O)c2cc(I)c(I)s2)CC1 [1.0477]
1.53^[a]	O=C(NC1(C(=O)NC2(C(=O)O)CC2)CC1)c1cc(I)c(I)s1 [1.0478]
3.92^[a]	CCOC(=O)C1(NC(=S)c2cc(Cl)c(Br)s2)CC1 [1.0479]
3.39^[a]	CCSC(=O)C1(NC(=O)c2cc(I)c(I)s2)CC1 [1.0480]

LogP	SMILES
2.78^[a]	CCOC(=O)CCNC(=O)c1sc(C)c(Br)c1F [1.0481]
3.91^[a]	CCOC(=O)C(C)NC(=O)c1sc(Cl)c(Br)c1Br (stereo not drawn) [1.0482]
3.08^[a]	COC(=O)C1(NC(=O)c2sc(Cl)c(Br)c2Br)CC1 [1.0483]
4.59^[a]	CCOC(=O)CNC(=S)c1sc(Cl)c(Br)c1Cl [1.0484]
4.08^[a]	COC(=O)CNC(=S)c1sc(Cl)c(Br)c1Cl [1.0485]
2.95^[a]	O=C(NC1(C(=O)O)CCC1)c1sc(Cl)c(Br)c1Cl [1.0486]
1.98^[a]	O=C(NC1(C(=O)O)COC1)c1sc(Br)c(Br)c1F [1.0489]
2.92^[a]	O=C(NC1(C(=O)O)CCC1)c1sc(Br)c(Br)c1Cl [1.0490]
2.95^[a]	CCOC(=O)CN(O)C(=O)c1sc(Cl)c(Cl)c1Br [1.0491]
2.92^[a]	COC(=O)CNC(=O)c1sc(Br)c(Br)c1Cl [1.0492]
4.58^[a]	CCOC(=O)CNC(=S)c1sc(Br)c(Br)c1Cl [1.0493]
2.28^[a]	O=C(O)CNC(=O)c1sc(Br)c(Br)c1Cl [1.0494]
3.98^[a]	CCOC(=O)C(NC(=O)c1sc(Br)c(Br)c1F)C1CC1 (stereo not drawn) [1.0495]
4.62^[a]	COC(=O)C(NC(=S)c1sc(Br)c(Br)c1F)C1CC1 (stereo not drawn) [1.0496]
5.32^[a]	COC(=O)C(Cc1ccccc1)NC(=S)c1sc(Br)c(Br)c1F (stereo not drawn) [1.0497]
3.40^[a]	COC(=O)CC[C@H](NC(=O)c1sc(Br)c(Br)c1Cl)C(=O)OC [1.0498]
4.12^[a]	COC(=O)CNC(=S)c1sc(Cl)c(Cl)c1I [1.0499]
3.10^[a]	O=C(O)CNC(=S)c1sc(Cl)c(Br)c1Cl [1.0500]
4.21^[a]	CCOC(=O)C(NC(=O)c1sc(Br)c(C(F)F)c1Br)C(C)C (stereo not drawn) [1.0502]
3.37^[a]	COC(=O)C(NC(=O)c1sc(Br)c(C(F)F)c1Br)C1CC1 (stereo not drawn) [1.0503]
4.40^[a]	CCOC(=O)C(Cc1ccccc1)NC(=O)c1sc(Br)c(C(F)F)c1Br (stereo not drawn) [1.0504]
3.25^[a]	COC(=O)C1(NC(=O)c2sc(Br)c(C(F)F)c2Br)CCC1 [1.0505]
3.66^[a]	CCOC(=O)C1(NC(=O)c2sc(Br)c(C(F)F)c2Br)CCC1 [1.0506]

LogP	SMILES
3.42^[a]	CCCOC(=O)C1(NC(=O)c2sc(Br)c(C(F)F)c2Br)CC1 [1.0507]
3.57^[a]	O=C(NC1(C(=O)OC2CCC2)CC1)c1sc(Br)c(C(F)F)c1Br [1.0508]
2.37^[a]	N#CCNC(=O)c1sc(Br)c(C(F)F)c1Br [1.0509]
3.02^[a]	CCOC(=O)CNC(=O)c1sc(C(F)F)c(Br)c1Br [1.0510]
2.64^[a]	COC(=O)CNC(=O)c1sc(C(F)F)c(Br)c1Br [1.0511]
2.79^[a]	COC(=O)C1(NC(=O)c2sc(C(F)F)c(Br)c2Br)CC1 [1.0512]
3.32^[a]	COC(=O)C(C)(C)NC(=O)c1sc(C(F)F)c(Br)c1Br [1.0513]
4.30^[a]	CCOC(=O)C(NC(=O)c1sc(C(F)F)c(Br)c1Br)C(C)C (stereo not drawn) [1.0514]
3.46^[a]	COC(=O)C(NC(=O)c1sc(C(F)F)c(Br)c1Br)C1CC1 (stereo not drawn) [1.0515]
4.48^[a]	CCOC(=O)C(Cc1ccccc1)NC(=O)c1sc(C(F)F)c(Br)c1Br (stereo not drawn) [1.0516]
3.35^[a]	COC(=O)C1(NC(=O)c2sc(C(F)F)c(Br)c2Br)CCC1 [1.0517]
3.75^[a]	CCOC(=O)C1(NC(=O)c2sc(C(F)F)c(Br)c2Br)CCC1 [1.0518]
3.51^[a]	CCCOC(=O)C1(NC(=O)c2sc(C(F)F)c(Br)c2Br)CC1 [1.0519]
3.67^[a]	O=C(NC1(C(=O)OC2CCC2)CC1)c1sc(C(F)F)c(Br)c1Br [1.0520]
2.45^[a]	N#CCNC(=O)c1sc(C(F)F)c(Br)c1Br [1.0521]
3.14^[a]	CCOC(=O)C1(NC(=O)c2sc(C(F)F)c(Br)c2Br)CC1 [1.0522]
2.54^[a]	CC(C)(NC(=O)c1sc(Br)c(Br)c1F)C(=O)O [1.0523]
4.35^[a]	CCOC(=O)C(NC(=O)c1sc(Cl)c(Cl)c1Br)C1CC1 (stereo not drawn) [1.0524]
3.67^[a]	COC(=O)C1(NC(=S)c2sc(Br)c(Cl)c2C)CC1 [1.0526]
2.52^[a]	COC(=O)CNC(=O)c1sc(Br)c(Br)c1F [1.0527]
4.55^[a]	COC(=O)C(CC(=O)OC(C)(C)C)NC(=O)c1sc(Br)c(Br)c1Cl (stereo not drawn) [1.0528]
3.58^[a]	COC(=O)[C@H](CSC(=O)N(C)C)NC(=O)c1sc(Cl)c(Cl)c1Br [1.0529]

same assay, conditions: method [a]

LogP	SMILES
3.39^[a]	CCNC(=O)SC[C@H](NC(=O)c1sc(Cl)c(Cl)c1Br)C(=O)OC [1.0530]
3.56^[a]	CNC(=S)SC[C@H](NC(=O)c1sc(Cl)c(Cl)c1Br)C(=O)OC [1.0531]
4.23^[a]	CCOC(=O)CC[C@H](NC(=O)c1sc(Br)c(Br)c1Cl)C(=O)OCC [1.0532]
3.27^[a]	COC(=O)[C@H](CSC(=O)N(C)C)NC(=O)c1sc(Br)c(Br)c1F [1.0533]
3.24^[a]	CNC(=S)SC[C@H](NC(=O)c1sc(Br)c(Br)c1F)C(=O)OC [1.0534]
3.59^[a]	COC(=O)C(CSC(=O)N(C)C)NC(=O)c1sc(Br)c(Br)c1Cl (stereo not drawn) [1.0535]
3.38^[a]	CCNC(=O)SCC(NC(=O)c1sc(Br)c(Br)c1Cl)C(=O)OC (stereo not drawn) [1.0536]
3.54^[a]	CNC(=S)SC[C@H](NC(=O)c1sc(Br)c(Br)c1Cl)C(=O)OC [1.0537]

Reference: US12642270B2, “Substituted thiophene carboxamides, thiophene carboxylic acids and derivatives thereof” (Bayer Aktiengesellschaft, priority 2019, dated 2026)
